What was measured:
[1] = Ferric reducing antioxidant power (FRAP); type: biochemical; conditions: mean ± SD
Description: (§1) Three different methods were performed to determine the antioxidant capacity of both apigenins. The Trolox equivalent antioxidant capacity (TEAC) was performed, as previously reported to establish the ABTS^·+ scavenging ability of both compounds [21]. The TEAC of the samples was calculated from the standard curve of Trolox, and the results are expressed in micromoles of Trolox equivalents (TE) per millimole of compound. The ferric reducing antioxidant power (FRAP) assay was performed, as described elsewhere. The reduction of a ferric-tripyridyltriazine complex was estimated, and the results are expressed in micromoles of Fe^2+ per millimole of compound. To assay the capacity of the compounds to scavenge peroxyl radicals, a validated assay of the oxygen radical absorbance capacity (ORAC) method was used. The ORAC assay was carried out on a microplate reader (POLAstar Omega, BMG LabTech GmbH, Offenburg, Germany) with 495 nm excitation and 520 nm emission filters to monitor fluorescein oxidation. The results are expressed in micromoles of TE per millimole of compound.

[2] = tested on: Caco-2 cell monolayer; parameters: method as in PMID 29186068; conditions: Caco-2 cell model; cited from earlier work
[3] = Caco-2 cell monolayer bidirectional permeability; type: in vitro ADME; conditions: human
Description: The cells were seeded into 6-well inserts with a polyethylene terephthalate (PET) membrane (pore size of 0.4 µm) (BD Falcon) at a density of 1.0 × 10^5 cells. Cell culture was maintained at 37 °C under 90% humidity and 5% CO2. The medium was replaced every 2–3 days for both the apical (AP) and basolateral (BL) chambers of the transwell filters. Cell monolayers were used 19–21 days after seeding, once confluence and differentiation were achieved. To check the integrity of each cell monolayer, the transepithelial electrical resistance (TEER) was measured before and after the experiments with an epithelial voltohmmeter (Millicell-ERS®). Permeability studies were performed by adding apigenin and apigenin-K at a concentration of 50 µM dissolved in HBSS medium (pH 7.4). The transport experiment was initiated by removing the culture medium from the AP and BL chambers. HBSS medium was prewarmed to wash the Caco-2 monolayers twice and, subsequently, to incubate the monolayers for 30 min at 37 °C. Afterwards, the test compounds were added to the apical (AP) or basolateral (BL) chambers to perform bidirectional permeability studies, while the receiving chamber contained the corresponding volume of HBSS. The six-well plate containing the cell monolayers was put into an orbital environmental shaker, which was set at a constant temperature (37 °C) and agitation rate (54 rpm) for the duration of the permeability experiments. […] The apparent permeability (Papp) values for each compound and direction can be calculated according to the following equation:(2) Papp= dQ/dt×1/A×C0×60 where Papp is the apparent permeability (cm/s), dQ/dt is the steady state flux, A is the diffusion area of the membrane (cm^2), C0 is the initial compound concentration in the donor compartment (µM) and 60 is a conversion factor [54]. […] In addition, the efflux ratio (ER) was calculated to determine the absorption mechanism, such as the ratio of Papp (BL-AP) to Papp (AP-BL). (3) ER= Papp (BL-AP)/Papp (AP-BL) The analyses of the samples from the permeability assay were analyzed via a high-performance liquid chromatograph Agilent LC 1100 series (Agilent Technologies, Inc., Palo Alto, CA, USA) controlled by the ChemStation software and equipped with a pump, autosampler, column oven and UV-Vis diode array detector. The samples were separated on a Poroshell 120 SB-C18 column (2.7 µm, 4.6 × 150 mm) after each 10 µL injection and were monitored at 280 nm. […] Quantitative evaluations of the apigenin or apigenin-K concentration were performed using the corresponding calibration graph of each compound with a six-point regression curve (r^2 > 0.999).

[4] = Trolox equivalent antioxidant capacity (TEAC); type: biochemical; conditions: Trolox equivalents per millimole of compound; mean ± SD
Description: as §1

[5] = Oxygen radical absorbance capacity (ORAC); type: biochemical; conditions: Trolox equivalents per millimole of compound; mean ± SD
Description: as §1

O=c1cc(-c2ccc(O)cc2)oc2cc(O)cc(O)c12 [Apigenin, 4′,5,7-trihydroxyflavone]
FRAP [1]: 113.2 ± 12.2 µmol Fe^2+/mmol
apparent permeability relative to its flavonol kaempferol [2]: 2.5 fold
efflux ratio at 120 min, 50 µM ([3]; Caco-2, pH 7.4, Papp (BL-AP)/Papp (AP-BL)): 0.51
Papp A→B at 120 min, 50 µM ([3]; Caco-2, apical-to-basolateral, 50 µM, HBSS pH 7.4, 120 min, mean of 6 replicates ± SD): 18.1 ± 1.7 ×10⁻⁶ cm/s
Papp B→A at 120 min, 50 µM ([3]; Caco-2, basolateral-to-apical, 50 µM, HBSS pH 7.4, 120 min, mean of 6 replicates ± SD): 9.3 ± 1.3 ×10⁻⁶ cm/s
Papp at 120 min, 50 µM ([3]; pH 7.4, Caco-2 cell model, read-out: apparent permeability (Papp)): 18.1 ×10⁻⁶ cm/s
TEAC [4]: 2022.2 ± 154.8 µmol TE/mmol
ORAC [5]: 887.9 ± 5.8 µmol TE/mmol
